Data reported in patent US10660882B2, “Prophylactic or therapeutic agent for giant cell tumors occurring in bone and soft tissue or for chondrosarcoma” (NIPPON CHEMIPHAR CO., LTD., priority 2012, dated 2020).

Tests used:
[1] = system: GCT cultured cells; assay: Cell proliferation of GCT cultured cells, Cell Counting Kit-8, absorbance at 450 nm; type: cell-based, human; settings: GCT cultured cells case 1, case 2
Description: (§1) GCT cultured cells (case 1, patient with osteoclastoma in a distal part of the right femur; case 2, patient with osteoclastoma in a distal part of the right femur) were cultured on a 96-well culture plate, zaltoprofen was added to the cells at various concentrations (5, 10, 50, 100, and 200 μM), color development was attained with Cell Counting Kit-8 (CCK-8) (Dojindo) 24 hours thereafter, and absorbance was measured at 450 nm 3 hours thereafter (FIG. 1).
In the same manner as that of Example 1, the GOT cultured cells (case 1, case 2) were cultured, a non-steroidal anti-inflammatory agent (acetaminophen, indomethacin, or diclofenac) or troglitazone was added at various concentrations, and absorbance was measured at 450 nm (FIGS. 12 and 13).
(§2) In the same manner as that of Example 1, the GCT cultured cells (case 1, case 2), the cells derived from giant cell tumor of tendon sheath (GCT of tendon sheath), or the cells derived from pigmented villonodular synovitis (diffuse-type GCT) were cultured, and then pioglitazone, a thiazolidine derivative, was added at various concentrations, and absorbance was measured at 450 nm (FIG. 32).

[2] = system: osteoclastoma; assay: MRI evaluation of patient with recurrence of osteoclastoma in the pelvic part administered with zaltoprofen; type: in vivo, human
Description: (§3) Soleton Tablet 80 (generic name: zaltoprofen, 80 mg, Nippon Chemiphar) was administered to a patient with osteoclastoma, a patient with giant cell tumor of tendon sheath, or a patient with pigmented villonodular synovitis at a dose of 3 tablets per day (administered in morning, at noon, and in evening), and the tumor size was evaluated by MRI every several months.

[3] = system: pigmented villonodular synovitis; assay: MRI and symptom evaluation of patients with recurrence of pigmented villonodular synovitis in the right knee administered with zaltoprofen; type: in vivo, human; settings: person, 3 tablets per day
Description: as §3

[4] = system: osteoclastoma (GCT); assay: Tunel assay of operational excision sample of GCT patient administered with zaltoprofen; type: in vivo, human; settings: 3 tablets per day (80 mg) for about 28 days
Description: (§4) An operational excision sample of a person who had been administered with 3 tablets per day of the zaltoprofen tablets, Soleton Tablet 80 (generic name: zaltoprofen, 80 mg, Nippon Chemiphar) for about 28 days for pain due to the tumor, and then subjected to the operation, and an operational excision sample of a patient with osteoclastoma not administered with zaltoprofen as a control were subjected to caspase 3 staining and Tunel assay, and analyzed for the presence or absence of apoptosis. Observation was performed with a fluorescence microscope (BZ-9000) produced by Keyence (FIG. 10). As a result, almost no Tunel-positive cells and caspase 3-positive cells were observed among the cells derived from the GCT patient not administered with zaltoprofen, whilst Tunel-positive cells and caspase 3-positive cells were observed among the cells derived from the patient administered with zaltoprofen.

[5] = system: cultured cells of giant cell tumor of tendon sheath; assay: Cell proliferation of cultured cells of giant cell tumor of tendon sheath, CCK-8; type: cell-based, human; settings: various concentrations
Description: as §1, §2

[6] = system: osteoclastoma (GCT); assay: Fat cell differentiation in operational excision sample of GCT patient administered with zaltoprofen; type: in vivo, human; settings: 3 tablets per day (80 mg) for about 28 days
Description: (§5) An operational excision sample of a person who had been administered with 3 tablets per day of the zaltoprofen tablets, Soleton Tablet 80 (generic name: zaltoprofen, 80 mg, Nippon Chemiphar) for about 28 days for pain due to the tumor, and then subjected to the operation, and an operational excision sample of a patient with osteoclastoma not administered with zaltoprofen as a control were subjected to staining of PPARγ, and expression of PPARγ was analyzed. Observation was performed with a fluorescence microscope (BZ-9000) of Keyence (FIG. 11).

[7] = system: GCT cultured cells; assay: Tunel assay of GCT cultured cells; type: cell-based, human; settings: case 1; 100 and 200 μM; 8 hours and 24 hours
Description: (§6) Further, the aforementioned GCT cultured cells of the case 1 were cultured on chamber cover slide glass, and zaltoprofen was added at different concentrations (100, and 200 μM) 24 hours afterward. Then, 8 hours and 24 hours afterward, the cells were fixed with 4% paraformaldehyde, staining with caspase 3 and Tunel assay were performed, and presence or absence of apoptosis was analyzed. Observation was performed with a fluorescence microscope (BZ-9000) of Keyence, and positive images for each concentration were quantitatively observed (FIGS. 2 to 5).

[8] = system: caspase 3; assay: Caspase 3 staining of GCT cultured cells; type: cell-based, human; settings: case 1; 100 and 200 μM; 8 hours and 24 hours
Description: as §6

[9] = system: caspase 3; assay: Caspase 3 staining of cultured cells of pigmented villonodular synovitis; type: cell-based, human; settings: 400 μM, compared with control
Description: as §6, with “5). […] Further, in the same manner as that of Example 1, the cultured cells of giant cell tumor of tendon sheath and the cultured cells of pigmented villonodular synovitis were subjected to staining with caspase 3 and Tunel assay, and presence or absence of apoptosis was analyzed (FIGS. 18 to 25). As a result, it was observed that the Tunel-positive ratio and caspase 3-positive ratio increased in the cells added with zaltoprofen at a concentration of 400 μM or troglitazone at a concentration of 2000 μM compared with those observed for the control.” for “5).”

[10] = system: cells derived from pigmented villonodular synovitis; assay: Fat cell differentiation of cells derived from pigmented villonodular synovitis, lipid stain; type: cell-based, human; settings: 400 μM, compared with control
Description: (§7) It has been reported that PPARγ is a transcription factor indispensable for fat cell differentiation. Therefore, the GCT cultured cells of the aforementioned case 1 were cultured on chamber cover slide glass, and when they reached confluent, zaltoprofen was added to the cells at various concentrations (10, 50, and 100 μM). From 24 hours thereafter, the cells were cultured in a fat cell differentiation-inducing medium (STREMPRO Adipogenesis Differentiation Kit, Invitrogen) for 7 to 14 days, and differentiation into fat cells was analyzed with HCS LipidTOX Green Neutral Lipid Stain (Invitrogen) (FIGS. 8 and 9).
(§8) As described in Example 3, it has been reported that PPARγ is a transcription factor indispensable for fat cell differentiation. Therefore, zaltoprofen was added at a concentration of 400 μM to the cells derived from giant cell tumor of tendon sheath or the cells derived from pigmented villonodular synovitis, and differentiation into fat cells was analyzed (FIGS. 30 and 31). As a result, it was successfully observed that the positive images obtained with HCS LipidTOX Green Neutral Lipid Stain increased in the zaltoprofen-added cells compared with the control.

[11] = system: GCT cultured cells; assay: Fat cell differentiation of GCT cultured cells, HCS LipidTOX Green Neutral Lipid Stain; type: cell-based, human; settings: case 1; 10, 50, and 100 μM; fat cell differentiation-inducing medium 7 to 14 days
Description: as §7

[12] = system: caspase 3; assay: Caspase 3 staining of chondrosarcoma-derived cell line; type: cell-based; settings: 200 μM zaltoprofen, compared with control
Description: as §6
Further, in the same manner as that of Example 1, the chondrosarcoma-derived cell line was subjected to caspase 3 staining, and presence or absence of apoptosis was analyzed (FIGS. 46 and 47). As a result, it was successfully observed that the caspase 3-positive ratio increased in the cells added with zaltoprofen at a concentration of 200 μM, troglitazone at a concentration of 100 μM, or pioglitazone at a concentration of 200 μM, compared with the control.

[13] = system: PPARγ; assay: PPARγ immunostaining of cells derived from pigmented villonodular synovitis; type: cell-based, human; settings: 400 μM
[14] = system: cells derived from giant cell tumor of tendon sheath; assay: Fat cell differentiation of cells derived from giant cell tumor of tendon sheath, lipid stain; type: cell-based, human; settings: 400 μM, compared with control
Description: as §7, §8

[15] = system: cultured cells of giant cell tumor of tendon sheath; assay: Tunel assay of cultured cells of giant cell tumor of tendon sheath; type: cell-based, human; settings: 400 μM, compared with control
Description: as §6, with “5). […] Further, in the same manner as that of Example 1, the cultured cells of giant cell tumor of tendon sheath and the cultured cells of pigmented villonodular synovitis were subjected to staining with caspase 3 and Tunel assay, and presence or absence of apoptosis was analyzed (FIGS. 18 to 25). As a result, it was observed that the Tunel-positive ratio and caspase 3-positive ratio increased in the cells added with zaltoprofen at a concentration of 400 μM or troglitazone at a concentration of 2000 μM compared with those observed for the control.” for “5).”

[16] = system: PPARγ; assay: Effect of PPARγ siRNA on GCT cultured cells after addition of drug, CCK-8; type: cell-based, human; settings: 200 μM; 72 hours; GCT cultured cells case 1, case 2
Description: The cells (case 1, case 2) were cultured on a 96-well culture plate, allowed to react with PPARγ siRNA, negative control siRNA, or only with the transfection reagents (Thermo Scientific DharmaFECT, Thermo Scientific) for 48 hours, and further cultured in a usual culture medium for 48 hours. Then, 200 μM of zaltoprofen or 60 μM of troglitazone was added to the cells, 72 hours thereafter, color development was performed with Cell Counting Kit-8 (CCK-8, Dojindo), and 3 hours thereafter, absorbance was measured at 450 nm (FIGS. 14 and 15).

[17] = system: caspase 3; assay: Caspase 3 staining of operational excision sample of GCT patient administered with zaltoprofen; type: in vivo, human; settings: 3 tablets per day (80 mg) for about 28 days
Description: as §4

[18] = system: caspase 3; assay: Caspase 3 staining of cultured cells of giant cell tumor of tendon sheath; type: cell-based, human; settings: 400 μM, compared with control
Description: as §6, with “5). […] Further, in the same manner as that of Example 1, the cultured cells of giant cell tumor of tendon sheath and the cultured cells of pigmented villonodular synovitis were subjected to staining with caspase 3 and Tunel assay, and presence or absence of apoptosis was analyzed (FIGS. 18 to 25). As a result, it was observed that the Tunel-positive ratio and caspase 3-positive ratio increased in the cells added with zaltoprofen at a concentration of 400 μM or troglitazone at a concentration of 2000 μM compared with those observed for the control.” for “5).”

[19] = system: cultured cells of pigmented villonodular synovitis; assay: Cell proliferation of cultured cells of pigmented villonodular synovitis, CCK-8; type: cell-based, human; settings: various concentrations
Description: as §1, §2

[20] = system: cultured cells of pigmented villonodular synovitis; assay: Tunel assay of cultured cells of pigmented villonodular synovitis; type: cell-based, human; settings: 400 μM, compared with control
Description: as §6, with “5). […] Further, in the same manner as that of Example 1, the cultured cells of giant cell tumor of tendon sheath and the cultured cells of pigmented villonodular synovitis were subjected to staining with caspase 3 and Tunel assay, and presence or absence of apoptosis was analyzed (FIGS. 18 to 25). As a result, it was observed that the Tunel-positive ratio and caspase 3-positive ratio increased in the cells added with zaltoprofen at a concentration of 400 μM or troglitazone at a concentration of 2000 μM compared with those observed for the control.” for “5).”

[21] = system: PPARγ; assay: PPARγ immunostaining of cells derived from giant cell tumor of tendon sheath; type: cell-based, human; settings: 400 μM
[22] = system: chondrosarcoma-derived cell line (H-EMC-SS); assay: Cell proliferation of chondrosarcoma-derived cell line, CCK-8; type: cell-based; settings: various concentrations
[23] = system: PPARγ; assay: PPARγ immunostaining of chondrosarcoma-derived cell line; type: cell-based; settings: 200 μM zaltoprofen
[24] = system: PPARγ; assay: PPARγ immunostaining of GCT cultured cells; type: cell-based, human; settings: case 1; 10, 50, 100, and 200 μM; 24 hours
Description: The GCT cultured cells of the aforementioned case 1 were cultured on chamber cover slide glass, and 24 hours thereafter, zaltoprofen was added at various concentrations (10, 50, 100, and 200 μM). After 24 hours, the cells were fixed with 4% paraformaldehyde, and staining of PPARγ was performed. Observation was performed with a fluorescence microscope (BZ-9000) of Keyence, and positive images for each concentration were quantitatively observed (FIGS. 6 and 7).

[25] = system: PPARγ; assay: PPARγ staining of operational excision sample of GCT patient administered with zaltoprofen; type: in vivo, human; settings: 3 tablets per day (80 mg) for about 28 days
Description: as §5

COc1ccc2c(c1)c(CC(=O)O)c(C)n2C(=O)c1ccc(Cl)cc1 [indomethacin]
cell proliferation (absorbance at 450 nm) ([1]; various concentrations): suppressed in a non-steroidal anti-inflammatory agent concentration-dependent manner

CC(=O)Nc1ccc(O)cc1 [acetaminophen]
cell proliferation (absorbance at 450 nm) ([1]; various concentrations): suppressed in a non-steroidal anti-inflammatory agent concentration-dependent manner

CC(C(=O)O)c1ccc2c(c1)CC(=O)c1ccccc1S2 (stereo not drawn) [zaltoprofen]
MRI image of the pelvic part (arrows) ([2]; after four months of administration): tumor necrosis region
MRI image of the pelvic part (arrows) ([2]; after two months of administration): tumor necrosis region
MRI imaging effect ([3]; after three months): attenuation of the MRI imaging effect
tumor size evaluated by MRI ([3]; after two months): shrinkage of tumor
Tunel-positive cells [4]: observed
cell proliferation (absorbance) [5]: suppressed in a zaltoprofen or troglitazone concentration-dependent manner
fat cell differentiation [6]: fat cell differentiation was observed
Tunel-positive ratio [7]: concentration and administration time-dependent increases
caspase 3-positive ratio [8]: concentration and administration time-dependent increases
caspase 3-positive ratio [9]: increased
positive images obtained with HCS LipidTOX Green Neutral Lipid Stain (differentiation into fat cells) [10]: increased
positive images obtained with HCS LipidTOX Green Neutral Lipid Stain (differentiation into fat cells) [11]: increased in a zaltoprofen concentration-dependent manner
cell proliferation (absorbance at 450 nm) ([1]; 5, 10, 50, 100, and 200 μM, 24 hours): concentration-dependent suppression of the cell proliferation
caspase 3-positive ratio [12]: increased
expression of PPARγ (PPARγ-positive images) [13]: expression of PPARγ was successfully observed
positive images obtained with HCS LipidTOX Green Neutral Lipid Stain (differentiation into fat cells) [14]: increased
Tunel-positive ratio [15]: increased
effect of the drug on cell proliferation in the PPARγ siRNA addition group [16]: significantly suppressed
caspase 3-positive cells [17]: observed
caspase 3-positive ratio [18]: increased
cell proliferation (absorbance) [19]: suppressed in a zaltoprofen or troglitazone concentration-dependent manner
Tunel-positive ratio [20]: increased
expression of PPARγ (PPARγ-positive images) [21]: expression of PPARγ was successfully observed
cell proliferation (absorbance) [22]: suppressed in a troglitazone, pioglitazone, or zaltoprofen concentration-dependent manner
expression of PPARγ (PPARγ-positive images) [23]: expression of PPARγ was successfully observed
expression of PPARγ (PPARγ-positive cells) [24]: increased in a zaltoprofen concentration-dependent manner
PPARγ-expressing cells [25]: PPARγ-expressing cells were observed

O=C(O)Cc1ccccc1Nc1c(Cl)cccc1Cl [diclofenac]
cell proliferation (absorbance at 450 nm) ([1]; various concentrations): suppressed in a non-steroidal anti-inflammatory agent concentration-dependent manner
